Reference: US10638756B2, “Molecules having pesticidal utility, and intermediates, compositions, and processes, related thereto” (Dow AgroSciences LLC, priority 2017, dated 2020)

Tests used:
Format in all cases: in vivo
[1] = system: Beet Armyworm (Spodoptera exigua); test: Bioassay on Beet Armyworm (BAW), 128-well diet tray assay; settings: Spodoptera exigua, 168 h; 50 μg/cm^2 on artificial diet, second instar larvae, five to seven days; read-out: BAW % Control (or Mortality) rating
[2] = system: Cabbage Looper (Trichoplusia ni); test: Bioassay on Cabbage Looper (CL), 128-well diet tray assay; settings: 168 h, 50 μg/cm^2 on artificial diet, second instar larvae, five to seven days, read-out: CL % Control (or Mortality) rating
Method in brief: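 Activity is mean percent mortality over eight wells of second-instar larvae exposed to diet treated at 50 μg/cm^2 for 5–7 days at 25° C.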

[3] = system: Yellow Fever Mosquito (Aedes aegypti); settings: about 1 day-old larvae, 3 days, scored on mortality
Method: Certain molecules disclosed in this document were tested against YFM using procedures described in the following paragraph. In the reporting of the results, the “GPA & YFM Rating Table” was used (See Table Section).
Master plates containing 400 μg of a molecule dissolved in 100 μL of dimethyl sulfoxide (DMSO) (equivalent to a 4000 ppm solution) are used. A master plate of assembled molecules contains 15 μL per well. To this plate, 135 μL of a 90:10 water/acetone mixture is added to each well. A robot (Biomek® NXP Laboratory Automation Workstation) is programmed to dispense 15 μL aspirations from the master plate into an empty 96-well shallow plate (“daughter” plate). There are 6 reps (“daughter” plates) created per master. The created “daughter” plates are then immediately infested with YFM larvae.
The day before plates are to be treated, mosquito eggs are placed in Millipore water containing liver powder to begin hatching (4 g. into 400 mL). After the “daughter” plates are created using the robot, they are infested with 220 μL of the liver powder/larval mosquito mixture (about 1 day-old larvae). After plates are infested with mosquito larvae, a non-evaporative lid is used to cover the plate to reduce drying. Plates are held at room temperature for 3 days prior to grading. After 3 days, each well is observed and scored based on mortality. The results are indicated in the table entitled “Table ABC: Biological Results” (See Table Section).

O=C(NNc1ccccn1)c1ccc(/C(F)=C/C(c2cc(Cl)c(Cl)c(Cl)c2)C(F)(F)F)cc1C(F)(F)F (stereo not shown) [F9, (Z)—N′-(Pyridin-2-yl)-4-(1,4,4,4-tetrafluoro-3-(3,4,5-trichlorophenyl)but-1-en-1-yl)-2-(trifluoromethyl)benzohydrazide]
mortality at 50 µg/cm2 [1]: 50 to 100%
mortality at 50 µg/cm2 [2]: 50 to 100%
YFM % Control (or Mortality) rating [3]: A (80-100)

Cc1csc(N(N)C(=O)c2ccc(/C(F)=C/C(c3cc(Cl)c(Cl)c(Cl)c3)C(F)(F)F)cc2C(F)(F)F)n1 (stereo not shown) [F109, (Z)—N-(4-Methylthiazol-2-yl)-4-(1,4,4,4-tetrafluoro-3-(3,4,5-trichlorophenyl)but-1-en-1-yl)-2-(trifluoromethyl)benzohydrazide]
mortality at 50 µg/cm2 [1]: 50 to 100%
mortality at 50 µg/cm2 [2]: 50 to 100%
YFM % Control (or Mortality) rating [3]: A (80-100)

CNN(CC(=O)NCC(F)(F)F)C(=O)c1ccc(/C(F)=C/C(c2cc(Cl)c(Cl)c(Cl)c2)C(F)(F)F)cc1C(F)(F)F (stereo not shown) [F183, (Z)-2-(2-Methyl-1-(4-(1,4,4,4-tetrafluoro-3-(3,4,5-trichlorophenyl)but-1-en-1-yl)-2-(trifluoromethyl)benzoyl)hydrazinyl)-N-(2,2,2-trifluoroethyl)acetamide]
mortality at 50 µg/cm2 [1]: 50 to 100%
mortality at 50 µg/cm2 [2]: 50 to 100%
YFM % Control (or Mortality) rating [3]: A (80-100)

O=C(NNc1ncccn1)c1ccc(/C(F)=C/C(c2cc(Cl)c(Br)c(Cl)c2)C(F)(F)F)cc1C(F)(F)F (stereo not shown) [F172, (Z)-4-(3-(4-Bromo-3,5-dichlorophenyl)-1,4,4,4-tetrafluorobut-1-en-1-yl)-N′-(pyrimidin-2-yl)-2-(trifluoromethyl)benzohydrazide]
mortality at 50 µg/cm2 [1]: 50 to 100%
mortality at 50 µg/cm2 [2]: 50 to 100%
YFM % Control (or Mortality) rating [3]: A (80-100)

CN(NC(=O)c1ccc(/C(F)=C/C(c2ccc(Br)c(C(F)(F)F)c2)C(F)(F)F)cc1C(F)(F)F)c1ncccn1 (stereo not shown) [F39, (Z)-4-(3-(4-Bromo-3-(trifluoromethyl)phenyl)-1,4,4,4-tetrafluorobut-1-en-1-yl)-N′-methyl-N′-(pyrimidin-2-yl)-2-(trifluoromethyl)benzohydrazide]
mortality at 50 µg/cm2 [1]: 50 to 100%
mortality at 50 µg/cm2 [2]: 50 to 100%
YFM % Control (or Mortality) rating [3]: A (80-100)

CN(NC(=O)c1ccc(/C(F)=C/C(c2cc(Cl)c(Cl)c(Cl)c2)C(F)(F)F)cc1C(F)(F)F)c1ccccc1 (stereo not shown) [F11, (Z)—N′-Methyl-N′-phenyl-4-(1,4,4,4-tetrafluoro-3-(3,4,5-trichlorophenyl)but-1-en-1-yl)-2-(trifluoromethyl)benzohydrazide]
mortality at 50 µg/cm2 [1]: 50 to 100%
mortality at 50 µg/cm2 [2]: 50 to 100%
YFM % Control (or Mortality) rating [3]: A (80-100)

Cc1cc(F)ccc1NNC(=O)c1ccc(/C(F)=C/C(c2cc(Cl)c(Cl)c(Cl)c2)C(F)(F)F)cc1C(F)(F)F (stereo not shown) [F35, (Z)—N′-(4-Fluoro-2-methylphenyl)-4-(1,4,4,4-tetrafluoro-3-(3,4,5-trichlorophenyl)but-1-en-1-yl)-2-(trifluoromethyl)benzohydrazide]
mortality at 50 µg/cm2 [1]: 50 to 100%
mortality at 50 µg/cm2 [2]: 50 to 100%
YFM % Control (or Mortality) rating [3]: A (80-100)

O=C(NNc1ncccn1)c1ccc(/C(F)=C/C(c2ccc(Br)c(C(F)(F)F)c2)C(F)(F)F)cc1C(F)(F)F (stereo not shown) [F78, (Z)-4-(3-(4-Bromo-3-(trifluoromethyl)phenyl)-1,4,4,4-tetrafluorobut-1-en-1-yl)-N′-(pyrimidin-2-yl)-2-(trifluoromethyl)benzohydrazide]
mortality at 50 µg/cm2 [1]: 50 to 100%
mortality at 50 µg/cm2 [2]: 50 to 100%
YFM % Control (or Mortality) rating [3]: A (80-100)

O=C(NNc1ncccn1)c1ccc(/C(F)=C/C(c2ccc(Cl)c(Cl)c2)C(F)(F)F)cc1C(F)(F)F (stereo not shown) [F117]
mortality at 50 µg/cm2 [1]: 50 to 100%
mortality at 50 µg/cm2 [2]: 50 to 100%
YFM % Control (or Mortality) rating [3]: A (80-100)

O=C(NNc1cc(F)ccc1F)c1ccc(/C(F)=C/C(c2cc(Cl)c(Cl)c(Cl)c2)C(F)(F)F)cc1C(F)(F)F (stereo not shown) [F134, (Z)—N′-(2,5-Difluorophenyl)-4-(1,4,4,4-tetrafluoro-3-(3,4,5-trichlorophenyl)but-1-en-1-yl)-2-(trifluoromethyl)benzohydrazide]
mortality at 50 µg/cm2 [1]: 50 to 100%
mortality at 50 µg/cm2 [2]: 50 to 100%
YFM % Control (or Mortality) rating [3]: A (80-100)

O=C(NNc1ncccc1Cl)c1ccc(/C(F)=C/C(c2cc(Cl)c(Cl)c(Cl)c2)C(F)(F)F)cc1C(F)(F)F (stereo not shown) [F99, (Z)—N′-(3-Chloropyridin-2-yl)-4-(1,4,4,4-tetrafluoro-3-(3,4,5-trichlorophenyl)but-1-en-1-yl)-2-(trifluoromethyl)benzohydrazide]
mortality at 50 µg/cm2 [1]: 50 to 100%
mortality at 50 µg/cm2 [2]: 50 to 100%
YFM % Control (or Mortality) rating [3]: A (80-100)

O=C(NNc1ncccn1)c1ccc(/C(F)=C/C(c2cc(Br)cc(Br)c2)C(F)(F)F)cc1C(F)(F)F (stereo not shown) [F176, (Z)-4-(3-(3,5-Dibromophenyl)-1,4,4,4-tetrafluorobut-1-en-1-yl)-N′-(pyrimidin-2-yl)-2-(trifluoromethyl)benzohydrazide]
mortality at 50 µg/cm2 [1]: 50 to 100%
mortality at 50 µg/cm2 [2]: 50 to 100%
YFM % Control (or Mortality) rating [3]: A (80-100)

COc1ccccc1NNC(=O)c1ccc(/C(F)=C/C(c2cc(Cl)c(Cl)c(Cl)c2)C(F)(F)F)cc1C(F)(F)F (stereo not shown) [F14, (Z)—N′-(2-Methoxyphenyl)-4-(1,4,4,4-tetrafluoro-3-(3,4,5-trichlorophenyl)but-1-en-1-yl)-2-(trifluoromethyl)benzohydrazide]
mortality at 50 µg/cm2 [1]: 50 to 100%
mortality at 50 µg/cm2 [2]: 50 to 100%
YFM % Control (or Mortality) rating [3]: A (80-100)

N#Cc1cccc(NNC(=O)c2ccc(/C(F)=C/C(c3cc(Cl)c(Cl)c(Cl)c3)C(F)(F)F)cc2C(F)(F)F)c1 (stereo not shown) [F100, (Z)—N′-(3-Cyanophenyl)-4-(1,4,4,4-tetrafluoro-3-(3,4,5-trichlorophenyl)but-1-en-1-yl)-2-(trifluoromethyl)benzohydrazide]
mortality at 50 µg/cm2 [1]: 50 to 100%
mortality at 50 µg/cm2 [2]: 50 to 100%
YFM % Control (or Mortality) rating [3]: A (80-100)

O=C(NN1CCS(=O)(=O)CC1)c1ccc(/C(F)=C/C(c2cc(Cl)c(Cl)c(Cl)c2)C(F)(F)F)cc1C(F)(F)F (stereo not shown) [F122, (Z)—N-(1,1-dioxidothiomorpholino)-4-(1,4,4,4-tetrafluoro-3-(3,4,5-trichlorophenyl)but-1-en-1-yl)-2-(trifluoromethyl)benzamide]
mortality at 50 µg/cm2 [1]: 50 to 100%
mortality at 50 µg/cm2 [2]: 50 to 100%
YFM % Control (or Mortality) rating [3]: D (No activity noticed in this bioassay)

CN(NC(=O)c1ccc(/C(F)=C/C(c2cc(Cl)c(Cl)c(Cl)c2)C(F)(F)F)cc1Br)c1ncccn1 (stereo not shown) [F102, (Z)-2-Bromo-N′-methyl-N′-(pyrimidin-2-yl)-4-(1,4,4,4-tetrafluoro-3-(3,4,5-trichlorophenyl)but-1-en-1-yl)benzohydrazide]
mortality at 50 µg/cm2 [1]: 50 to 100%
mortality at 50 µg/cm2 [2]: 50 to 100%
YFM % Control (or Mortality) rating [3]: A (80-100)

O=C(NNc1ncccn1)c1ccc(/C(F)=C/C(c2cc(Cl)cc(Cl)c2)C(F)(F)F)cc1C(F)(F)F (stereo not shown) [F56, (Z)-4-(3-(3,5-Dichlorophenyl)-1,4,4,4-tetrafluorobut-1-en-1-yl)-N′-(pyrimidin-2-yl)-2-(trifluoromethyl)benzohydrazide]
mortality at 50 µg/cm2 [1]: 50 to 100%
mortality at 50 µg/cm2 [2]: 50 to 100%
YFM % Control (or Mortality) rating [3]: A (80-100)

O=C(NNc1ccc(F)cc1)c1ccc(/C(F)=C/C(c2cc(Cl)c(Cl)c(Cl)c2)C(F)(F)F)cc1C(F)(F)F (stereo not shown) [F52]
mortality at 50 µg/cm2 [1]: 50 to 100%
mortality at 50 µg/cm2 [2]: 50 to 100%
YFM % Control (or Mortality) rating [3]: A (80-100)

CN(C)N(CC(=O)NCC(F)(F)F)C(=O)c1ccc(/C(F)=C/C(c2cc(Cl)c(Cl)c(Cl)c2)C(F)(F)F)cc1C(F)(F)F (stereo not shown) [F184, (Z)-2-(2,2-dimethyl-1-(4-(1,4,4,4-tetrafluoro-3-(3,4,5-trichlorophenyl)but-1-en-1-yl)-2-(trifluoromethyl)benzoyl)hydrazinyl)-N-(2,2,2-trifluoroethyl)acetamide]
mortality at 50 µg/cm2 [1]: 50 to 100%
mortality at 50 µg/cm2 [2]: 50 to 100%
YFM % Control (or Mortality) rating [3]: A (80-100)

CN(NC(=O)c1ccc(/C(F)=C/C(c2ccc(Cl)c(Cl)c2)C(F)(F)F)cc1C(F)(F)F)c1ncccn1 (stereo not shown) [F8, (Z)-4-(3-(3,4-Dichlorophenyl)-1,4,4,4-tetrafluorobut-1-en-1-yl)-N′-methyl-N′-(pyrimidin-2-yl)-2-(trifluoromethyl)benzohydrazideazide]
mortality at 50 µg/cm2 [1]: 50 to 100%
mortality at 50 µg/cm2 [2]: 50 to 100%
YFM % Control (or Mortality) rating [3]: A (80-100)

O=C(NNc1ncccn1)c1ccc(/C(F)=C/C(c2cc(Cl)cc(C(F)(F)F)c2)C(F)(F)F)cc1C(F)(F)F (stereo not shown) [F77, (Z)-4-(3-(3-Chloro-5-(trifluoromethyl)phenyl)-1,4,4,4-tetrafluorobut-1-en-1-yl)-N′-(pyrimidin-2-yl)-2-(trifluoromethyl)benzohydrazide]
mortality at 50 µg/cm2 [1]: 50 to 100%
mortality at 50 µg/cm2 [2]: 50 to 100%

CN(NC(=O)c1ccc(/C(F)=C/[C@H](c2cc(Cl)c(Cl)c(Cl)c2)C(F)(F)F)cc1C(F)(F)F)c1ncccn1 (single isomer, unassigned) [F29]
mortality at 50 µg/cm2 [1]: 50 to 100%
mortality at 50 µg/cm2 [2]: 50 to 100%
